Reference: patent publication US20250388571A1, “AMP-ACTIVATED PROTEIN KINASE MODULATOR COMPOUNDS AND USES THEREOF” (Biolexis Therapeutics, Inc., priority 2024, published 2025)

Tests used:
AMPK (A2/B1/G3) = AMPK (A2/B1/G3) (Homo sapiens, UniProt P54646+Q9UGI9+Q9Y478); assay: AMPK kinase binding activity in activation mode (AC50); assay type: biochemical
AMPK (A2/B1/G1) = AMPK (A2/B1/G1) (Homo sapiens, UniProt P54619+P54646+Q9Y478); assay: as above; assay type: biochemical
AMPK (A2/B2/G3) = AMPK (A2/B2/G3) (Homo sapiens, UniProt O43741+P54646+Q9UGI9); assay: as above; assay type: biochemical
Text: In Vitro AMPK Kinase Inhibition Experiments

[1] = tested on: human skeletal muscle cells (HSKM cells); assay: Glucose uptake assay, human skeletal muscle cells; assay type: cell-based; details: 100 μM to 0.005 μM, 1 hour
Method: FIGS. 1-4 show results for cells treated with differing doses of representative compounds of Structure (I) (i.e., compound I-11 in FIG. 1 and compound I-7 in FIG. 2) as well reference compounds (i.e., PF-06409577 in FIG. 3 and MK-8722 in FIG. 4). […] Cells were starved for 3 hours in high glucose DMEM without FBS, then treated with indicated compounds in DMEM without FBS/glucose for 1 hour, and glucose uptake was detected using an uptake glucose kit (Promega). The bars show (from left to right) concentrations of 100 μM, 33 μM, 11 μM, 3.7 μM, 1.23 μM, 0.41 μM, 0.14 μM, 0.045 μM, 0.015 μM, 0.005 μM, 0 μM, and insulin.
(§1) Human skeletal myoblasts were obtained (Thermofisher; BYU) and cultured in DMEM/F12 medium with 10% FBS. For differentiation, 2% horse serum low glucose DMEM medium was employed for 72 hours. Human cardiomyocytes cells (HCM cells; Promocell) were cultured in myocyte growth medium (Promocell). Human preadipocyte HWP-c cells (Promocell) were obtained from upper arm of diabetic II donor. Human preadipocyte HWP-c cells (Promocell) were obtained from abdomen of diabetic II donor. For differentiating human preadipocytes, cells were cultured in preadipocyte growth medium to total confluency stage. The growth medium was replaced with preadipocyte differentiation medium for 72 hours, then changed to PromoCell adipocyte nutrition medium to complete the differentiation process. THLE-2 cells were cultured in BEGM from Lonza/Clonetics Corporation, Walkersville, MD 21793 (BEGM Bullet Kit; CC3170). HepG2, L6 and C2Cl2 cells were cultured in EMEM medium.
(§2) After differentiation myoblasts, preadipocyte cells were starved by removing the medium and adding 100 μL DMEM without serum. The medium was then replaced with 100 μL DMEM±1 μM insulin at indicated concentration of representative compounds without serum or glucose. The cells were then incubated for 1 hour at 37° C. in 5% CO2. The cells were then removed from the medium and 50 μL of 0.1 mM 2DG in PBS was added. Cells were incubated for 30 minutes at 25° C. 25 μL of Stop Buffer was added and samples were mixed. 25 μL of Neutralization Buffer was then added and mixed. 100 μL of 2DG6P Detection Reagent was then added and mixed. Samples were then incubated for 1 hour at 25° C. Luminescence was then recorded with 0.3-1 second integration on a luminometer.

[2] = tested on: human cardiomyocyte cells (HCM); assay: Glucose uptake assay, human cardiomyocyte cells; assay type: cell-based; details: for AMPK activation activity (glucose uptake assay): 10 doses 100 μM to 0.005 μM
Method: FIGS. 17-19 show results for glucose update assays in human cardiomyocyte cells (“HCM”-healthy donor) (Promocell, cat. no. C-12810) when treated with compound I-11 (FIG. 17), compound I-7 (FIG. 18), and PF-06409577 (FIG. 19). After recovered HCM cells for 4 days, cells were starved for 3 hours in high glucose DMEM without FBS, treated with the components noted above in DMEM without FBS/glucose for 1 hour, and glucose uptake was detected using a glucose uptake kit (Promega). […] The bars show (from left to right) concentrations of 100 μM, 33 μM, 11 μM, 3.7 μM, 1.23 μM, 0.41 μM, 0.14 μM, 0.045 μM, 0.015 μM, 0.005 μM, 0 μM, and insulin.
FIGS. 20-22 show results for glucose update assays in human cardiomyocyte cells (“HCM”-diabetic donor) (Promocell, cat. no. C-12810) when treated with compound I-11 (FIG. 20), compound I-7 (FIG. 21), and PF-06409577 (FIG. 22). After recovered HCM cells for 4 days, cells were starved for 3 hours in high glucose DMEM without FBS, treated with the components noted above in DMEM without FBS/glucose for 1 hour, and glucose uptake was detected using a glucose uptake kit (Promega). […] The bars show (from left to right) concentrations of 100 μM, 33 μM, 11 μM, 3.7 μM, 1.23 μM, 0.41 μM, 0.14 μM, 0.045 μM, 0.015 μM, 0.005 μM, 0 μM, and insulin.
as §1, §2

Chain of AMPK (A2/B1/G3) (P54646 whole entry): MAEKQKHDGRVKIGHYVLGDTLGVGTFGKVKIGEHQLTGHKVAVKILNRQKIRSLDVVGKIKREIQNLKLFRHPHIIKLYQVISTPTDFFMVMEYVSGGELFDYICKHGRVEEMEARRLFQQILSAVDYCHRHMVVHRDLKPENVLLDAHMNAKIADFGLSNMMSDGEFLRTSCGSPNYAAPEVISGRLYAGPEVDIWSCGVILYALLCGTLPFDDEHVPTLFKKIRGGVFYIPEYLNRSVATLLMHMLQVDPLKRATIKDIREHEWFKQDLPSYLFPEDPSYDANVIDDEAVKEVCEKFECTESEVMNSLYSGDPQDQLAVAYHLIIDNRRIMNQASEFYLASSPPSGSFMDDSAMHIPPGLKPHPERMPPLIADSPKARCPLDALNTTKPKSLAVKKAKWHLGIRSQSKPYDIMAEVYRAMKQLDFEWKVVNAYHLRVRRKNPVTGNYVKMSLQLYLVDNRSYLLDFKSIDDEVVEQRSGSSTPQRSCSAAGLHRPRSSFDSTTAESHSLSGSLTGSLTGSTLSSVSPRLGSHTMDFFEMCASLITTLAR
Chain of AMPK (A2/B1/G3) (Q9Y478 whole entry): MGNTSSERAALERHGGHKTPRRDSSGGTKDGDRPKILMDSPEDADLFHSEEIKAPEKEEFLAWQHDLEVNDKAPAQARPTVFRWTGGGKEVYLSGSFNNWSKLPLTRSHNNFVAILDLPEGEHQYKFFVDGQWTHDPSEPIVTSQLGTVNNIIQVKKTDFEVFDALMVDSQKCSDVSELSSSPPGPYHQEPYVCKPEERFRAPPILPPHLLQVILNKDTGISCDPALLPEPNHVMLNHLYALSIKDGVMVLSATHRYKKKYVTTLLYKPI
Chain of AMPK (A2/B1/G3) (Q9UGI9 whole entry): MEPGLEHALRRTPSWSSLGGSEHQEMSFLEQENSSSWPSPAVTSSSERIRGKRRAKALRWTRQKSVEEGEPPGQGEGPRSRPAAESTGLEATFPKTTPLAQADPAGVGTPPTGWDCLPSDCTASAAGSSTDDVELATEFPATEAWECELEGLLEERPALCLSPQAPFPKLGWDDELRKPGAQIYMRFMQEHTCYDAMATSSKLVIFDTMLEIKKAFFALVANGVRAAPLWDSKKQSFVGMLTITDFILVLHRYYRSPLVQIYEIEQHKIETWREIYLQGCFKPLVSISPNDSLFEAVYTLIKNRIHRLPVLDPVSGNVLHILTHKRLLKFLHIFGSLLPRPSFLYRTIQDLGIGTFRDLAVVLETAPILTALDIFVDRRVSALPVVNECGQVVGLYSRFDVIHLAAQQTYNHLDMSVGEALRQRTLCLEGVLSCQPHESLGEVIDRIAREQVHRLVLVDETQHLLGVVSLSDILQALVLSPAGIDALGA
Chain of AMPK (A2/B2/G3) (P54646 whole entry): as the sequence (P54646 whole entry) above
Chain of AMPK (A2/B2/G3) (O43741 whole entry): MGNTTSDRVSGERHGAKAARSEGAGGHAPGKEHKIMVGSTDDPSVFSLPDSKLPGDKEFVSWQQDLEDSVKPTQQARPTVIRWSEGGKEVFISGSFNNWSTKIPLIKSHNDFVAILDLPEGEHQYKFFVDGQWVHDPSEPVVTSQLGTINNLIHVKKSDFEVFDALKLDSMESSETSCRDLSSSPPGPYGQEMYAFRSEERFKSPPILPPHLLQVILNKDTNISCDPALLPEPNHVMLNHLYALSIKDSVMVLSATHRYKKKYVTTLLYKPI
Chain of AMPK (A2/B2/G3) (Q9UGI9 whole entry): as the sequence (Q9UGI9 whole entry) above
Chain of AMPK (A2/B1/G1) (P54646 whole entry): as the sequence (P54646 whole entry) above
Chain of AMPK (A2/B1/G1) (Q9Y478 whole entry): as the sequence (Q9Y478 whole entry) above
Chain of AMPK (A2/B1/G1) (P54619 whole entry): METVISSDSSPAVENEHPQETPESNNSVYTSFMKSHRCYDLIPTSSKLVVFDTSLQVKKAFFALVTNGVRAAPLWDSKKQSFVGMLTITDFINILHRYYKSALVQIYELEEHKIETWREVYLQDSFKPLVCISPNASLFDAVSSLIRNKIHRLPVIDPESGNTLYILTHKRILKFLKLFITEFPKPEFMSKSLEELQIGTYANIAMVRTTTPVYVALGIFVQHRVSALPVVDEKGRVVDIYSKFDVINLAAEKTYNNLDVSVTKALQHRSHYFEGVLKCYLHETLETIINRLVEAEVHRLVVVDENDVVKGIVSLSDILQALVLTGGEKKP

O=c1[nH]c(-c2c[nH]c3cc(F)c(-c4ccc(C5(O)CCC5)cc4)nc23)no1 [Compound I-44, 3-(6-fluoro-5-(4-(1-hydroxycyclobutyl)phenyl)-1H-pyrrolo[3,2-b]pyridin-3-yl)-1,2,4-oxadiazol-5(4H)-one]
AC50 (AMPK (A2/B1/G3)): 0.5 to 5 µM

COc1ccc(-c2cc3c(-c4noc(=O)[nH]4)c[nH]c3cc2F)c(OC)n1 [Compound I-14, 3-(5-(2,6-dimethoxypyridin-3-yl)-6-fluoro-1H-indol-3-yl)-1,2,4-oxadiazol-5(4H)-one]
AC50 (AMPK (A2/B1/G3)): 0.01 to 0.5 µM
AC50 (AMPK (A2/B1/G1)): 0.01 to 0.5 µM

C[C@@H]1NS(=O)(c2c[nH]c3cc(Cl)c(-c4ccc(C5(O)CCC5)cc4)cc23)=NC1=O (stereo partly drawn) [Compound I-3, (4S)-1-(6-chloro-5-(4-(1-hydroxycyclobutyl)phenyl)-1H-indol-3-yl)-4-methyl-4,5-dihydro-3H-1l6,2,5-thiadiazol-3-one 1-oxide]
AC50 (AMPK (A2/B1/G3)): 0.01 to 0.5 µM

O=P(O)(O)CSc1c[nH]c2cc(F)c(-c3ccc(C4(O)CCC4)cc3)c(F)c12 [Compound I-46, (((4,6-difluoro-5-(4-(1-hydroxycyclobutyl)phenyl)-1H-indol-3-yl)thio)methyl)phosphonic acid]
AC50 (AMPK (A2/B1/G3)): 0.01 to 0.5 µM
AC50 (AMPK (A2/B2/G3)): 0.5 to 5 µM

Cc1ccc(N2CC(=O)NS2(=O)=O)cc1Oc1nc2cc(-c3ccc(C4(O)CCC4)cc3)c(Cl)cc2[nH]1 [II-23, 5-(3-((6-chloro-5-(4-(1-hydroxycyclobutyl)phenyl)-1H-benzo[d]imidazol-2-yl)oxy)-4-methylphenyl)-1,2,5-thiadiazolidin-3-one 1,1-dioxide]
AC50 (AMPK (A2/B1/G3)): 0.01 to 0.5 µM
AC50 (AMPK (A2/B2/G3)): 0.01 to 0.5 µM

O=c1[nH]c(-c2c[nH]c3ncc(-c4ccc(C5(O)CCC5)cc4)cc23)no1 [Compound I-9, 3-(5-(4-(1-hydroxycyclobutyl)phenyl)-1H-pyrrolo[2,3-b]pyridin-3-yl)-1,2,4-oxadiazol-5(4H)-one]
AC50 (AMPK (A2/B1/G3)): 0.01 to 0.5 µM

O=c1[nH]c(-c2c[nH]c3cc(F)c(-c4ccc(C5(O)COC5)nc4)cc23)no1 [Compound I-18, 3-(6-fluoro-5-(6-(3-hydroxyoxetan-3-yl)pyridin-3-yl)-1H-indol-3-yl)-1,2,4-oxadiazol-5(4H)-one]
AC50 (AMPK (A2/B1/G1)): 7.5 to 20 µM

C[C@H]1NS(=O)(c2c[nH]c3cc(Cl)c(-c4ccc(C5(O)CCC5)cc4)cc23)=NC1=O (stereo partly drawn) [Compound I-4, (4R)-1-(6-chloro-5-(4-(1-hydroxycyclobutyl)phenyl)-1H-indol-3-yl)-4-methyl-4,5-dihydro-3H-1l6,2,5-thiadiazol-3-one 1-oxide]
AC50 (AMPK (A2/B1/G3)): 0.01 to 0.5 µM

O=P(O)(O)CSc1c[nH]c2cc(F)c(-c3ccc(N4CC[C@H](O)C4)cc3)c(F)c12 [Compound I-25, (S)-(((4,6-difluoro-5-(4-(3-hydroxypyrrolidin-1-yl)phenyl)-1H-indol-3-yl)thio)methyl)phosphonic acid]
AC50 (AMPK (A2/B1/G3)): 0.01 to 0.5 µM
AC50 (AMPK (A2/B2/G3)): 0.5 to 5 µM

O=P(O)(O)CSc1c[nH]c2cc(F)c(-c3ccc(N4CC[C@H](O)C4)cc3)cc12 [Compound I-24, (S)-(((6-fluoro-5-(4-(3-hydroxypyrrolidin-1-yl)phenyl)-1H-indol-3-yl)thio)methyl)phosphonic acid]
AC50 (AMPK (A2/B1/G3)): 0.01 to 0.5 µM
AC50 (AMPK (A2/B2/G3)): 0.5 to 5 µM

Cc1cc2c(cc1Oc1nc3nc(-c4ccc(C5(O)CCC5)cc4)c(Cl)cc3[nH]1)B(O)OC2 [II-26, 6-((6-chloro-5-(4-(1-hydroxycyclobutyl)phenyl)-1H-imidazo[4,5-b]pyridin-2-yl)oxy)-5-methylbenzo[c][1,2]oxaborol-1(3H)-ol]
AC50 (AMPK (A2/B1/G3)): ≤ 0.01 µM
AC50 (AMPK (A2/B2/G3)): 0.01 to 0.5 µM

Cc1ccc(N2CC(=O)NS2(=O)=O)cc1Oc1nc2cc(-c3ccc(C4(O)CCC4)cc3)c(F)cc2[nH]1 [II-22, 5-(3-((6-fluoro-5-(4-(1-hydroxycyclobutyl)phenyl)-1H-benzo[d]imidazol-2-yl)oxy)-4-methylphenyl)-1,2,5-thiadiazolidin-3-one 1,1-dioxide]
AC50 (AMPK (A2/B1/G3)): 0.01 to 0.5 µM
AC50 (AMPK (A2/B2/G3)): 0.01 to 0.5 µM

O=C(O)c1c[nH]c2cc(Cl)c(-c3ccc(C4CCCO4)cc3)cc12 (stereo not drawn) [PF-06409577, reference compound]
dose dependence of glucose uptake (printed: activation of insulin / AMPK activation) [1]: highly variable
AMPK activation activity (glucose uptake assay) ([2]; diabetic donor): significant variability
glucose uptake ([2]; donor not stated): did not induce glucose uptake in dose-dependent manner
AMPK activation activity (glucose uptake assay) ([2]; healthy donor): significant variability

O=P(O)(O)CSc1c[nH]c2cc(F)c(N3CC[C@H](O)C3)c(F)c12 [Compound I-26, (S)-(((4,6-difluoro-5-(3-hydroxypyrrolidin-1-yl)-1H-indol-3-yl)thio)methyl) phosphonic acid]
AC50 (AMPK (A2/B1/G3)): 0.01 to 0.5 µM
AC50 (AMPK (A2/B2/G3)): 0.5 to 5 µM

Cc1ccc(N2CC(=O)NS2(=O)=O)cc1Oc1nc2nc(-c3ccc(C4(O)CCC4)cc3)c(Cl)cc2[nH]1 [II-21, 5-(3-((6-chloro-5-(4-(1-hydroxycyclobutyl)phenyl)-1H-imidazo[4,5-b]pyridin-2-yl)oxy)-4-methylphenyl)-1,2,5-thiadiazolidin-3-one 1,1-dioxide]
AC50 (AMPK (A2/B1/G3)): ≤ 0.01 µM
AC50 (AMPK (A2/B2/G3)): 5 to 7.5 µM

O=c1[nH]c(-c2c[nH]c3ccc(N4CC[C@H](O)C4)cc23)no1 [Compound I-20, (S)-3-(5-(3-hydroxypyrrolidin-1-yl)-1H-indol-3-yl)-1,2,4-oxadiazol-5(4H)-one]
AC50 (AMPK (A2/B1/G3)): 0.5 to 5 µM
AC50 (AMPK (A2/B1/G1)): 5 to 7.5 µM

OB1OCc2ccc(-c3c[nH]c4cc(Cl)c(-c5ccc(C6(O)CCC6)cc5)cc34)cc21 [Compound I-75, 6-(6-chloro-5-(4-(1-hydroxycyclobutyl)phenyl)-1H-indol-3-yl)benzo[c][1,2]oxaborol-1(3H)-ol]
AC50 (AMPK (A2/B1/G3)): 0.5 to 5 µM
AC50 (AMPK (A2/B2/G3)): 0.5 to 5 µM

O=c1[nH]c(-c2c[nH]c3cc(F)c(-c4ccc(C5(O)COC5)cc4)nc23)no1 [Compound I-45, 3-(6-fluoro-5-(4-(3-hydroxyoxetan-3-yl)phenyl)-1H-pyrrolo[3,2-b]pyridin-3-yl)-1,2,4-oxadiazol-5(4H)-one]
AC50 (AMPK (A2/B1/G3)): 5 to 7.5 µM

O=C1CN(c2c[nH]c3cc(Cl)c(-c4ccc(C5(O)CCC5)cc4)cc23)S(=O)(=O)N1 [Compound I-76, 5-(6-chloro-5-(4-(1-hydroxycyclobutyl)phenyl)-1H-indol-3-yl)-1,2,5-thiadiazolidin-3-one 1,1-dioxide]
AC50 (AMPK (A2/B1/G3)): ≤ 0.01 µM
AC50 (AMPK (A2/B2/G3)): 0.5 to 5 µM

O=P(O)(O)CSc1c[nH]c2cc(F)c(-c3ccc(C4(O)CCC4)cc3)cc12 [Compound I-47, (((6-fluoro-5-(4-(1-hydroxycyclobutyl)phenyl)-1H-indol-3-yl)thio)methyl)phosphonic acid]
AC50 (AMPK (A2/B1/G3)): 0.01 to 0.5 µM
AC50 (AMPK (A2/B2/G3)): 0.5 to 5 µM

1-(6-chloro-5-(4-(1- hydroxycyclobutyl) phenyl)- 1H-indol-3-yl)-4-methyl-4,5- dihydro-3H-1l6,2,5- thiadiazol-3-one 1-oxide (racemic) [Compound I-2, 1-(6-chloro-5-(4-(1-hydroxycyclobutyl)phenyl)-1H-indol-3-yl)-4-methyl-4,5-dihydro-3H-1l6,2,5-thiadiazol-3-one 1-oxide (racemic)]
AC50 (AMPK (A2/B1/G3)): 0.01 to 0.5 µM

O=P(O)(O)CSc1c[nH]c2ccc(-c3ccc(C4(O)CCC4)cc3)cc12 [Compound I-48, (((5-(4-(1-hydroxycyclobutyl)phenyl)-1H-indol-3-yl)thio)methyl)phosphonic acid]
AC50 (AMPK (A2/B1/G3)): 0.01 to 0.5 µM
AC50 (AMPK (A2/B2/G3)): 0.5 to 5 µM
